Earlier results as cited in patent US11725025B2, “Progesterone phosphate analogs and uses related thereto” (EMORY UNIVERSITY, priority 2013, dated 2023).

Tests used:
[1] = tested on: moderate to severe TBI patients; conditions: 3 days of intravenous progesterone treatment; 100 moderate to severe TBI patients

For `CC(=O)[C@H]1CC[C@H]2[C@@H]3CCC4=CC(=O)CC[C@]4(C)[C@H]3CC[C@]12C` [progesterone], the “functional outcomes at 30 days post-injury” value [1] is listed as “significantly improved”, the reduction of mortality [1] is listed as “over 60%” and the “solubility in aqueous-based formulations” value is listed as “insoluble”.
